From US8138184B2, “Isoxazole derivatives and pharmaceutical compositions comprising the same” (Kaohsiung Medical University, priority 2008, dated 2012) come the findings set out here.

The test system of data set [1] is SF-268 cells (glioblastoma cells). Description: Cytotoxicity assay (MTS reduction), SF-268. The data set is classed as cell-based, human. The conditions noted are these: for activity at 4 µg/mL / activity at 20 µg/mL: Homo sapiens, SF-268, 72 h, 3 days, % of DMSO control, read-out: Growth percentage SF-268 (CNS); for activity at 4 µg/mL / inhibition of growth of SF-268 (in words): 4 μg/mL; for activity at 20 µg/mL: 20 μg/mL. How it is done:
(§1) MCF-7 cells (human breast adenocarcinoma), NCI-H460 cells (non-small-cell lung cancer) and SF-268cells (glioblastoma cells) were cultured in a Dulbecco's modified Eagle's medium supplemented with a 10% fetal calf serum and a nonessential amino acid (Life Technologies, Inc.) and maintained at 37° C. in a humidified incubator with 5% CO2.
(§2) Human cancer cells were seeded in 96-well microtiter plates at a density of 6500, 2500 and 7500 cells/well in 100 μl of culture medium for MCF-7, NCI-H460, and SF-268, respectively. […] Cells were treated with test compounds for 3 days. Cell viability was determined by the 5-[3-(carboxymethoxy)-phenyl]-2-(4,5-dimethylthiazolyl)-3-(4-sulfophenyl)tetrazolium salt (MTS) reduction assay. Actinomycin D (10 μM, final concentration) and DMSO (0.1%, final concentration) were used as positive and vehicle controls, respectively. Results were expressed as a % of the DMSO control.

Data set [2] can be described thus: Cell viability by MTT assay in hADSCs. The note with it: human, human adipose tissue derived stem cells (hADSCs), % of control. The data set is classed as cell-based, human. As to the method:
(§3) Human adipose tissue derived stem cells (hADSCs), which is derived from adipose tissue, were selected an maintained in a keratinocyte SFM medium (Gibco BRL, Gaithersburg, Md.) supplemented with 5% FBS, 100 U/ml of penicillin and streptomycin.
(§4) New synthetic compounds were dissolved in DMSO to a final concentration of 10 mM and stored at −20° C. The concentration used was 10 μM and freshly diluted to the medium with a final concentration of DMSO at 0.1%. Control cultures were treated with the same amount of DMSO as used in the corresponding experiments.
The MTT assay is a calorimetric assay based on the ability of the viable cells to reduce a soluble yellow tetrazolium salt to blue formazan crystals (Carmichael, J. et. el. Cancer Research 1987, 47, 936). After compound treatments, 350 μL of MTT solution ([…] in PBS) were added to each well and incubated for 4 hrs. DMSO was then added for another 0.5 hrs to thoroughly dissolve the dark blue crystals. The absorbance at 570 nm was measured with an ELISA reader. Inhibition of mitochondrial metabolism was shown as relative activity (% of control).

The subject of data set [3] is Human adipose tissue derived stem cells (hADSCs). Description: Cytotoxicity assay by lactate dehydrogenase (LDH) leakage in hADSCs. The data set is classed as cell-based. The note with it: 10 μM, % of total cell toxicity. How it is done:
as §3, §4
Lactate dehydrogenase (LDH) leakage from cells was measured to quantify the cytotoxicity by using a cytotoxicity detection kit (Roche, Germany) (Crowston, J. G. et al Invest. Ophthalmol. Vis. Sci. 1998, 39, 449). Cells were previously seeded into 48-well plates (4×10^4 cells/well). After a drug treatment, the supernatants and cell layers of the cultures were collected for assay. According to the manufacturer's guidelines for the detection kit, cell layers were lysed with 1% TritonX-100, and cell lysates and supernatants were assayed in a 96-well plate, respectively. Briefly, 100 μL of catalyst solution was added in each assay well for 20 min. Absorbance was measured with an ELISA reader with a 490 nm filter. LDH leakage was shown as relative activity (% of total cell toxicity).

In data set [4] the test system is MCF-7 cells (human breast adenocarcinoma). The data set can be described thus: Cytotoxicity assay (MTS reduction), MCF-7. The data set is classed as cell-based. The conditions noted are these: for activity at 4 µg/mL / activity at 20 µg/mL: Homo sapiens, MCF7, 72 h, 3 days, % of DMSO control, read-out: Growth percentage MCF7 (Breast); for activity at 4 µg/mL / inhibition of growth of MCF7 (in words): 4 μg/mL; for activity at 20 µg/mL: 20 μg/mL. As to the method: as §1, §2

In data set [5] the test system is NCI-H460 cells (non-small-cell lung cancer). The data set can be described thus: Cytotoxicity assay (MTS reduction), NCI-H460. The data set is classed as cell-based, human. The conditions noted are these: for activity at 4 µg/mL / activity at 20 µg/mL: Homo sapiens, NCI-H460, 72 h, 3 days, % of DMSO control, read-out: Growth percentage NCI-H460 (Lung); for activity at 4 µg/mL / inhibition of growth of NCI-H460 (in words): 4 μg/mL; for activity at 20 µg/mL: 20 μg/mL. As to the method: as §1, §2

Regarding `COc1ccc(-c2cnoc2-c2ccc(OC(C)C)cc2OCCCCN2CCOCC2)cc1` [5b, 4-{4-{5-Isopropoxy-2-[4-(4-methoxyphenyl)isoxazol-5-yl]phenoxy}butyl}morpholine], the activity at 4 µg/mL in data set [1] is 58%; in data set [4], 63%; in data set [5] it was 52%. The activity at 20 µg/mL in data set [1] was found to be 3%; in data set [4], 4%; in data set [5] it was 1%. In data set [2], the viability at 3 days, 10 µM was found to be 58%. In addition, the “Cell cytotoxicity (3 days, LDH)” value in data set [3] amounted to 13%.

With `COc1ccc(-c2cnoc2-c2ccc(OC(C)C)cc2OCCCCN2CCNCC2)cc1` [5c, 5-{4-Isopropoxy-2-[4-(piperazin-1-yl)butoxy]phenyl}-4-(4-methoxyphenyl)isoxazole], the activity at 4 µg/mL in data set [1] was found to be 68%; in data set [4] it was 7%; in data set [5] it was 29%. The activity at 20 µg/mL was -2% in data set [1], -1% in data set [4] and 0% in data set [5]. In data set [2], this compound returned a viability at 3 days, 10 µM of 86%. For the same compound, the “Cell cytotoxicity (3 days, LDH)” value in data set [3] worked out at 33%.

With `COc1ccc(-c2cnoc2-c2ccc(OC(C)C)cc2OCCCCN2CCCCC2)cc1` [5d, 5-{4-Isopropoxy-2-[4-(piperidin-1-yl)butoxy]phenyl}-4-(4-methoxyphenyl)isoxazole], the results for the activity at 4 µg/mL in data set [1], in data set [4] and in data set [5] were 119%, 90% and 68%, respectively. For the same compound, the figures for the activity at 20 µg/mL in data set [1], in data set [4] and in data set [5] were 2%, 1% and 1%, respectively. Besides, the viability at 3 days, 10 µM in data set [2] came out at 78%. The “Cell cytotoxicity (3 days, LDH)” value in data set [3] is 0%.

In the case of `COc1ccc(-c2cnoc2-c2ccc(OC(C)C)cc2OCCCCCCN2CCOCC2)cc1` [5f, 4-{6-{5-Isopropoxy-2-[4-(4-methoxyphenyl)isoxazol-5-yl]phenoxy}hexyl}morpholine], the activity at 4 µg/mL was 38% in data set [1], 44% in data set [4] and 17% in data set [5]. Besides, the results for the activity at 20 µg/mL in data set [1], in data set [4] and in data set [5] were 1%, -1% and 0%, respectively. In addition, the viability at 3 days, 10 µM in data set [2] turned out to be 53%. Moreover, the “Cell cytotoxicity (3 days, LDH)” value in data set [3] is 17%.

For `COc1ccc(-c2cnoc2-c2ccc(OC(C)C)cc2OCCCCCCN2CCNCC2)cc1` [5g, 5-{4-Isopropoxy-2-[6-(piperazin-1-yl)hexyloxy]phenyl}-4-(4-methoxyphenyl)isoxazole], in data set [1], the “inhibition of growth of SF-268 (in words)” value is on record as “significantly inhibit the growth”, the activity at 4 µg/mL amounted to 20% and the activity at 20 µg/mL is -1%. This compound gave a viability at 3 days, 10 µM in data set [2] of 60%. Besides, the “Cell cytotoxicity (3 days, LDH)” value in data set [3] amounted to 0%. Further, in data set [4], the “inhibition of growth of MCF7 (in words)” value is given as “significantly inhibit the growth”, the activity at 4 µg/mL stood at 14% and the activity at 20 µg/mL is -3%. In data set [5], the “inhibition of growth of NCI-H460 (in words)” value was “significantly inhibit the growth”, the activity at 4 µg/mL was 0% and the activity at 20 µg/mL was -1%.

For the compound `COc1ccc(-c2cnoc2-c2ccc(OC(C)C)cc2OCCCCCCN2CCCCC2)cc1` [5h, 5-{4-isopropoxy-2-[6-(piperidin-1-yl)hexyloxy]phenyl}-4-(4-methoxyphenyl)isoxazole], in data set [1], the “inhibition of growth of SF-268 (in words)” value is given as “significantly inhibit the growth”, the activity at 4 µg/mL was determined as 4% and the activity at 20 µg/mL is -1%. Moreover, in data set [2], the viability at 3 days, 10 µM was determined as 57%. In addition, the “Cell cytotoxicity (3 days, LDH)” value in data set [3] was determined as 0%. Besides, in data set [4], the “inhibition of growth of MCF7 (in words)” value was “significantly inhibit the growth”, the activity at 4 µg/mL amounted to 13% and the activity at 20 µg/mL was -3%. In data set [5], the “inhibition of growth of NCI-H460 (in words)” value is “significantly inhibit the growth”, the activity at 4 µg/mL came out at 2% and the activity at 20 µg/mL is -1%.

As to `COc1ccc(-c2cnoc2-c2ccc(OC(C)C)cc2OCCCCCCCN2CCCC2)cc1` [5i, 5-{4-Isopropoxy-2-[7-(pyrrolidin-1-yl)heptyloxy]phenyl}-4-(4-methoxyphenyl)isoxazole], the values for the activity at 4 µg/mL in data set [1], in data set [4] and in data set [5] were 30%, 32% and 11%, respectively. Further, the activity at 20 µg/mL came out at 2% in data set [1], 2% in data set [4] and 1% in data set [5]. The same compound yielded a viability at 3 days, 10 µM in data set [2] of 63%. For the same compound, the “Cell cytotoxicity (3 days, LDH)” value in data set [3] is listed as 0%.

`COc1ccc(-c2cnoc2-c2ccc(OC(C)C)cc2OCCCCCCCN2CCOCC2)cc1` [5j, 4-{7-{5-isopropoxy-2-[4-(4-methoxyphenyl)isoxazol-5-yl]phenoxy}heptyl}morpholine]: the activity at 4 µg/mL in data set [1] stood at 32%; in data set [4], 25%; in data set [5] it was 10%. Moreover, the activity at 20 µg/mL came to 2% in data set [1], 1% in data set [4] and 0% in data set [5]. This compound also came in with a viability at 3 days, 10 µM in data set [2] of 54%. Moreover, in data set [3], the “Cell cytotoxicity (3 days, LDH)” value was found to be 12%.

Consider `COc1ccc(-c2cnoc2-c2ccc(OC(C)C)cc2OCCCCCCCN2CCNCC2)cc1` [5k], for which the activity at 4 µg/mL turned out to be 3% in data set [1], 1% in data set [4] and 0% in data set [5]. The activity at 20 µg/mL in data set [1], in data set [4] and in data set [5] was 1% in each case. Moreover, the viability at 3 days, 10 µM in data set [2] is 68%. The “Cell cytotoxicity (3 days, LDH)” value in data set [3] was 0%.

`COc1ccc(-c2cnoc2-c2ccc(OC(C)C)cc2OCCCCCCCN2CCCCC2)cc1` [5l, 5-{4-Isopropoxy-2-[7-(piperidin-1-yl)heptyloxy]phenyl}-4-(4-methoxyphenyl)isoxazole]: the activity at 4 µg/mL in data set [1] was found to be 25%; in data set [4], 29%; in data set [5] it was 8%. Moreover, the activity at 20 µg/mL in data set [1] amounted to 2%; in data set [4] it was 1%; in data set [5], 1%. The viability at 3 days, 10 µM in data set [2] was found to be 58%. Besides, in data set [3], the “Cell cytotoxicity (3 days, LDH)” value is 0%.

For `COc1ccc(-c2cnoc2-c2ccc(OCCCCCCN3CCNCC3)cc2O)cc1` [8a], the figures for the activity at 4 µg/mL in data set [1], in data set [4] and in data set [5] were 68%, 7% and 29%, respectively. Further, the activity at 20 µg/mL is -2% in data set [1], -1% in data set [4] and 0% in data set [5]. Moreover, the viability at 3 days, 10 µM in data set [2] was found to be 64%. Also, in data set [3], the “Cell cytotoxicity (3 days, LDH)” value came out at 0%.

Consider `CC(C)Oc1ccc2c(=O)c(-c3ccccc3)coc2c1` [Ipriflavone, reference compound], for which, in data set [2], the viability at 3 days, 10 µM was determined as 77%. Also, the “Cell cytotoxicity (3 days, LDH)” value in data set [3] was 0%.

In data set [2], `COc1ccc(-c2cnoc2-c2ccc(OC(C)C)cc2O)cc1` [compound 3, 5-Isopropoxy-2-[4-(4-methoxyphenyl)isoxazol-5-yl]phenol] had a viability at 3 days, 10 µM of 6%. Besides, in data set [3], the “Cell cytotoxicity (3 days, LDH)” value was 68%.
